Conditions: Liquid

CCOS(=O)(=O)[O-].CCn1cc[n+](C)c1 [1-ethyl-3-methylimidazolium ethyl sulfate]
Conditions	mass density [kg/m3]
292.49 K, 101.33 kPa	1242.1
293.46 K, 10000 kPa	1250.9
293.46 K, 20000 kPa	1259.3
293.47 K, 1000 kPa	1242.9
293.47 K, 5000 kPa	1246.5
293.47 K, 30000 kPa	1267.5
293.48 K, 40000 kPa	1275.4
302.61 K, 101.33 kPa	1236.7
312.47 K, 101.33 kPa	1230.7
322.3 K, 101.33 kPa	1224.4
322.31 K, 1000 kPa	1225.6
322.31 K, 5000 kPa	1229.5
322.31 K, 20000 kPa	1243.3
322.31 K, 40000 kPa	1260.6
322.32 K, 10000 kPa	1234.2
322.33 K, 30000 kPa	1252.1
332.74 K, 101.33 kPa	1218.4
342.42 K, 101.33 kPa	1212.6
352.32 K, 101.33 kPa	1206.3
352.33 K, 1000 kPa	1207.6
352.33 K, 5000 kPa	1211.8
352.33 K, 10000 kPa	1216.9
352.34 K, 20000 kPa	1226.7
352.34 K, 30000 kPa	1236
352.34 K, 40000 kPa	1245.2
373.36 K, 101.33 kPa	1194.1
373.36 K, 1000 kPa	1195
373.36 K, 5000 kPa	1199.4
373.36 K, 10000 kPa	1204.8
373.36 K, 30000 kPa	1225
373.36 K, 40000 kPa	1234.4
373.37 K, 20000 kPa	1215
391.39 K, 101.33 kPa	1183.2
391.39 K, 1000 kPa	1184.2
391.39 K, 5000 kPa	1188.8
391.39 K, 10000 kPa	1194.6
391.39 K, 30000 kPa	1215.4
391.39 K, 40000 kPa	1225.2
391.41 K, 20000 kPa	1205.1
414.94 K, 10000 kPa	1180.8
414.94 K, 20000 kPa	1192.1
414.94 K, 30000 kPa	1202.9
414.95 K, 101.33 kPa	1169.1
414.95 K, 1000 kPa	1170.2
414.95 K, 5000 kPa	1174.9
414.95 K, 40000 kPa	1213.2

CCCCn1cc[n+](C)c1.F[P-](F)(F)(F)(F)F [1-butyl-3-methylimidazolium hexafluorophosphate]
Conditions	mass density [kg/m3]
293.48 K, 1000 kPa	1369.9
293.49 K, 101.33 kPa	1369.8
293.49 K, 20000 kPa	1378.3
293.5 K, 10000 kPa	1374
293.5 K, 40000 kPa	1385.9
293.51 K, 5000 kPa	1371.7
293.51 K, 30000 kPa	1382.2
302.73 K, 101.33 kPa	1362
312.86 K, 101.33 kPa	1353.5
322.28 K, 101.33 kPa	1345.5
322.3 K, 10000 kPa	1350.6
322.3 K, 20000 kPa	1355.2
322.31 K, 1000 kPa	1346.2
322.31 K, 40000 kPa	1363.3
322.33 K, 5000 kPa	1348.2
322.33 K, 30000 kPa	1359.3
332.73 K, 101.33 kPa	1337
342.5 K, 101.33 kPa	1328.7
352.29 K, 101.33 kPa	1320.9
352.3 K, 40000 kPa	1339.8
352.31 K, 1000 kPa	1321.6
352.31 K, 10000 kPa	1326.3
352.31 K, 20000 kPa	1331.2
352.32 K, 5000 kPa	1323.7
352.34 K, 30000 kPa	1335.6
373.3 K, 5000 kPa	1306.6
373.31 K, 10000 kPa	1309.4
373.32 K, 30000 kPa	1319
373.33 K, 101.33 kPa	1303.9
373.33 K, 1000 kPa	1304.4
373.33 K, 40000 kPa	1323.3
373.34 K, 20000 kPa	1314.3
391.27 K, 10000 kPa	1294.7
391.28 K, 30000 kPa	1304.7
391.3 K, 101.33 kPa	1289.1
391.3 K, 5000 kPa	1292
391.31 K, 20000 kPa	1300
391.31 K, 40000 kPa	1309.1
391.32 K, 1000 kPa	1289.5
414.91 K, 10000 kPa	1275.6
414.92 K, 20000 kPa	1281
414.92 K, 40000 kPa	1290.5
414.93 K, 101.33 kPa	1269.7
414.93 K, 5000 kPa	1272.6
414.93 K, 30000 kPa	1285.9
414.94 K, 1000 kPa	1270.2

CCCCn1cc[n+](C)c1.F[B-](F)(F)F [1-butyl-3-methylimidazolium tetrafluoroborate]
Conditions	mass density [kg/m3]
292.94 K, 101.33 kPa	1204.8
293.49 K, 10000 kPa	1208.5
293.49 K, 30000 kPa	1216.5
293.49 K, 40000 kPa	1220.4
293.5 K, 1000 kPa	1204.7
293.5 K, 20000 kPa	1212.6
293.51 K, 5000 kPa	1206.5
302.8 K, 101.33 kPa	1197.5
312.79 K, 101.33 kPa	1190.2
322.3 K, 10000 kPa	1187.7
322.3 K, 40000 kPa	1200.4
322.31 K, 1000 kPa	1183.6
322.31 K, 20000 kPa	1192
322.31 K, 30000 kPa	1196.2
322.33 K, 5000 kPa	1185.4
322.83 K, 101.33 kPa	1182.9
332.53 K, 101.33 kPa	1175.8
342.72 K, 101.33 kPa	1168.6
352.31 K, 10000 kPa	1166.5
352.32 K, 101.33 kPa	1161.7
352.32 K, 5000 kPa	1164.1
352.32 K, 20000 kPa	1171.1
352.32 K, 30000 kPa	1175.7
352.33 K, 1000 kPa	1162.1
352.33 K, 40000 kPa	1180.01
373.31 K, 5000 kPa	1149.4
373.31 K, 20000 kPa	1156.8
373.32 K, 101.33 kPa	1146.9
373.32 K, 10000 kPa	1152
373.33 K, 30000 kPa	1161.6
373.33 K, 40000 kPa	1166.1
373.34 K, 1000 kPa	1147.3
391.27 K, 1000 kPa	1135
391.29 K, 101.33 kPa	1134.5
391.29 K, 10000 kPa	1139.7
391.29 K, 20000 kPa	1144.8
391.29 K, 30000 kPa	1149.7
391.29 K, 40000 kPa	1154.4
391.31 K, 5000 kPa	1137.1
414.92 K, 101.33 kPa	1116.5
414.92 K, 5000 kPa	1119.4
414.92 K, 20000 kPa	1127.4
414.92 K, 40000 kPa	1137.4
414.93 K, 1000 kPa	1117.1
414.93 K, 10000 kPa	1122.1
414.93 K, 30000 kPa	1132.5
